Results from the supplement of paper PMC10307832.

Assays:
Experiment in all cases: relative viability (nuclei count vs DMSO), 5 days (fraction); higher = more cells survive
[1] = compound: CCN1C(=O)C2=CC(=C(N=C2N(C1=O)C3CC3)N)C(=O)N + Nc1ncn([C@H]2C[C@H](O)[C@@H](CO)O2)c(=O)n1 [Decitabine] (partner 2 µM)
Summary of the method: (§1)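 The day after seeding in 1536-well plates, lung cancer cell lines were treated by pin tool with a single drug, or with a fixed anchor-drug dose together with five library-drug doses (not always all listed) in √10 steps. After 5 days, a combined fix-and-stain solution (final 0.05% Triton X-100, 1% formaldehyde, 1 ug/ml Hoechst) was added. Nuclei counted on 4× images gave relative viability as treated counts over vehicle counts, reported as the median of duplicate plates.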

[2] = compound: CCN1C(=O)C2=CC(=C(N=C2N(C1=O)C3CC3)N)C(=O)N + CCNC(=O)c1noc(-c2cc(C(C)C)c(O)cc2O)c1-c1ccc(CN2CCOCC2)cc1 [Luminespib] (partner 0.01 µM)
Summary of the method: as §1

[3] = compound: CCN1C(=O)C2=CC(=C(N=C2N(C1=O)C3CC3)N)C(=O)N + COc1cc2c(Oc3ccc(NC(=O)C4(C(=O)Nc5ccc(F)cc5)CC4)cc3F)ccnc2cc1OCCCN1CCOCC1 [Foretinib] (partner 0.25 µM)
Summary of the method: as §1

[4] = compound: CCN1C(=O)C2=CC(=C(N=C2N(C1=O)C3CC3)N)C(=O)N + Cc1nc(NC(=O)N2CCC[C@H]2C(N)=O)sc1-c1ccnc(C(C)(C)C(F)(F)F)c1 [Alpelisib] (partner 2 µM)
Summary of the method: as §1

[5] = compound: CCN1C(=O)C2=CC(=C(N=C2N(C1=O)C3CC3)N)C(=O)N + COc1cccc2cc(-c3nc([C@H]4CC[C@H](C(=O)O)CC4)n4ncnc(N)c34)[nH]c12 [OSI-027] (partner 0.5 µM)
Summary of the method: as §1

Cell Line: NCI-H2085
- relative viability ([1]; first compound 0.253 µM): 0.566
- relative viability ([1]; first compound 0.8 µM): 0.522
- relative viability ([1]; first compound 2.53 µM): 0.563
- relative viability ([1]; first compound 8 µM): 0.524
- relative viability ([2]; first compound 0.253 µM): 0.378
- relative viability ([2]; first compound 0.8 µM): 0.408
- relative viability ([2]; first compound 2.53 µM): 0.355
- relative viability ([2]; first compound 8 µM): 0.493
- relative viability ([3]; first compound 0.253 µM): 0.992
- relative viability ([3]; first compound 0.8 µM): 0.874
- relative viability ([3]; first compound 2.53 µM): 0.834
- relative viability ([3]; first compound 8 µM): 0.947
- relative viability ([4]; first compound 0.253 µM): 0.96
- relative viability ([4]; first compound 0.8 µM): 0.945
- relative viability ([4]; first compound 2.53 µM): 0.924
- relative viability ([4]; first compound 8 µM): 1.04
- relative viability ([5]; first compound 0.253 µM): 0.728
- relative viability ([5]; first compound 0.8 µM): 0.691
- relative viability ([5]; first compound 2.53 µM): 0.738
- relative viability ([5]; first compound 8 µM): 0.684

Cell Line: BEN
- relative viability ([1]; first compound 0.253 µM): 0.814
- relative viability ([1]; first compound 0.8 µM): 0.675
- relative viability ([1]; first compound 2.53 µM): 0.734
- relative viability ([1]; first compound 8 µM): 0.657
- relative viability ([2]; first compound 0.253 µM): 0.469
- relative viability ([2]; first compound 0.8 µM): 0.427
- relative viability ([2]; first compound 2.53 µM): 0.377
- relative viability ([2]; first compound 8 µM): 0.351
- relative viability ([3]; first compound 0.253 µM): 1.13
- relative viability ([3]; first compound 0.8 µM): 0.618
- relative viability ([3]; first compound 2.53 µM): 0.69
- relative viability ([3]; first compound 8 µM): 0.558
- relative viability ([4]; first compound 0.253 µM): 1.07
- relative viability ([4]; first compound 0.8 µM): 1.02
- relative viability ([4]; first compound 2.53 µM): 0.929
- relative viability ([4]; first compound 8 µM): 1.01
- relative viability ([5]; first compound 0.253 µM): 0.297
- relative viability ([5]; first compound 0.8 µM): 0.321
- relative viability ([5]; first compound 2.53 µM): 0.273
- relative viability ([5]; first compound 8 µM): 0.295

Cell Line: NCI-H661
- relative viability ([1]; first compound 0.253 µM): 0.544
- relative viability ([1]; first compound 0.8 µM): 0.551
- relative viability ([1]; first compound 2.53 µM): 0.517
- relative viability ([1]; first compound 8 µM): 0.543
- relative viability ([2]; first compound 0.253 µM): 0.922
- relative viability ([2]; first compound 0.8 µM): 0.904
- relative viability ([2]; first compound 2.53 µM): 0.898
- relative viability ([2]; first compound 8 µM): 0.904
- relative viability ([3]; first compound 0.253 µM): 0.989
- relative viability ([3]; first compound 0.8 µM): 1.08
- relative viability ([3]; first compound 2.53 µM): 0.939
- relative viability ([3]; first compound 8 µM): 1.01
- relative viability ([4]; first compound 0.253 µM): 0.711
- relative viability ([4]; first compound 0.8 µM): 0.78
- relative viability ([4]; first compound 2.53 µM): 0.742
- relative viability ([4]; first compound 8 µM): 0.778
- relative viability ([5]; first compound 0.253 µM): 0.773
- relative viability ([5]; first compound 0.8 µM): 0.742
- relative viability ([5]; first compound 2.53 µM): 0.681
- relative viability ([5]; first compound 8 µM): 0.677

Cell Line: LCLC-103H
- relative viability ([1]; first compound 0.253 µM): 0.723
- relative viability ([1]; first compound 0.8 µM): 0.699
- relative viability ([1]; first compound 2.53 µM): 0.753
- relative viability ([1]; first compound 8 µM): 0.702
- relative viability ([2]; first compound 0.253 µM): 0.916
- relative viability ([2]; first compound 0.8 µM): 0.956
- relative viability ([2]; first compound 2.53 µM): 0.958
- relative viability ([2]; first compound 8 µM): 1.12
- relative viability ([3]; first compound 0.253 µM): 0.852
- relative viability ([3]; first compound 0.8 µM): 0.721
- relative viability ([3]; first compound 2.53 µM): 0.728
- relative viability ([3]; first compound 8 µM): 0.922
- relative viability ([4]; first compound 0.253 µM): 0.935
- relative viability ([4]; first compound 0.8 µM): 0.962
- relative viability ([4]; first compound 2.53 µM): 0.907
- relative viability ([4]; first compound 8 µM): 0.934
- relative viability ([5]; first compound 0.253 µM): 0.411
- relative viability ([5]; first compound 0.8 µM): 0.475
- relative viability ([5]; first compound 2.53 µM): 0.49
- relative viability ([5]; first compound 8 µM): 0.399

Cell Line: PC-3 [JPC-3]
- relative viability ([1]; first compound 0.253 µM): 0.81
- relative viability ([1]; first compound 2.53 µM): 0.871
- relative viability ([1]; first compound 8 µM): 0.886
- relative viability ([2]; first compound 0.253 µM): 0.661
- relative viability ([2]; first compound 0.8 µM): 0.709
- relative viability ([2]; first compound 2.53 µM): 0.663
- relative viability ([2]; first compound 8 µM): 0.823
- relative viability ([3]; first compound 0.253 µM): 1.02
- relative viability ([3]; first compound 0.8 µM): 1.03
- relative viability ([3]; first compound 2.53 µM): 1
- relative viability ([3]; first compound 8 µM): 0.929
- relative viability ([4]; first compound 0.253 µM): 1.06
- relative viability ([4]; first compound 0.8 µM): 1
- relative viability ([4]; first compound 2.53 µM): 0.981
- relative viability ([4]; first compound 8 µM): 1.16
- relative viability ([5]; first compound 0.253 µM): 0.746
- relative viability ([5]; first compound 0.8 µM): 0.85
- relative viability ([5]; first compound 2.53 µM): 0.735
- relative viability ([5]; first compound 8 µM): 0.791

Cell Line: COR-L23
- relative viability ([1]; first compound 0.253 µM): 0.442
- relative viability ([1]; first compound 0.8 µM): 0.467
- relative viability ([1]; first compound 2.53 µM): 0.428
- relative viability ([1]; first compound 8 µM): 0.375
- relative viability ([2]; first compound 0.253 µM): 0.697
- relative viability ([2]; first compound 0.8 µM): 0.653
- relative viability ([2]; first compound 2.53 µM): 0.657
- relative viability ([2]; first compound 8 µM): 0.765
- relative viability ([3]; first compound 0.253 µM): 0.91
- relative viability ([3]; first compound 0.8 µM): 1.03
- relative viability ([3]; first compound 2.53 µM): 1.08
- relative viability ([3]; first compound 8 µM): 0.947
- relative viability ([4]; first compound 0.253 µM): 0.775
- relative viability ([4]; first compound 0.8 µM): 0.714
- relative viability ([4]; first compound 2.53 µM): 0.816
- relative viability ([4]; first compound 8 µM): 0.944
- relative viability ([5]; first compound 0.253 µM): 0.883
- relative viability ([5]; first compound 0.8 µM): 0.819
- relative viability ([5]; first compound 2.53 µM): 0.743
- relative viability ([5]; first compound 8 µM): 0.867

Cell Line: NCI-H1915
- relative viability ([1]; first compound 0.253 µM): 0.243
- relative viability ([1]; first compound 0.8 µM): 0.261
- relative viability ([1]; first compound 2.53 µM): 0.252
- relative viability ([1]; first compound 8 µM): 0.249
- relative viability ([2]; first compound 0.253 µM): 0.852
- relative viability ([2]; first compound 0.8 µM): 0.775
- relative viability ([2]; first compound 2.53 µM): 0.873
- relative viability ([2]; first compound 8 µM): 0.892
- relative viability ([3]; first compound 0.253 µM): 1.05
- relative viability ([3]; first compound 0.8 µM): 1.09
- relative viability ([3]; first compound 2.53 µM): 1.11
- relative viability ([3]; first compound 8 µM): 1.04
- relative viability ([4]; first compound 0.253 µM): 1.1
- relative viability ([4]; first compound 0.8 µM): 0.985
- relative viability ([4]; first compound 2.53 µM): 1.01
- relative viability ([4]; first compound 8 µM): 1.06
- relative viability ([5]; first compound 0.253 µM): 0.636
- relative viability ([5]; first compound 0.8 µM): 0.638
- relative viability ([5]; first compound 2.53 µM): 0.6
- relative viability ([5]; first compound 8 µM): 0.679
